Consider 5 molecules from patent US20140080824A1, “STRUCTURE-GUIDED IDENTIFICATION OF BINDING INTERACTIONS OF HUMAN LAMININ RECEPTOR PRECURSOR WITH LAMININ AND IDENTIFICATION OF COMPOUNDS THAT AFFECT BINDING” (NEW YORK UNIVERSITY, priority 2010, published 2014).

Entries after “also recorded” stand apart in the source; their conditions may differ.

The subject of assay [1] is HT1080 cells. Briefly: HT1080 cell migration towards 10% FBS. In kind it is cell-based, human. The procedure: In order to understand how this in vitro result translated into the cellular context, the ability of cells to migrate toward growth medium was tested in the presence and absence of the LamR inhibitors of the present invention. Since LamR on the cell surface serves the purpose of binding extracellular matrix laminin and facilitates migration and metastasis, it was expected that as inhibitors of cell surface LamR, the compounds of the present invention would reduce the migratory capability of cells. […] The migration of HT1080 cells was reduced to a level equivalent to the no migration control of no serum (No FBS).
HT1080 cells were tested for their ability to migrate toward normal growth media supplemented with 10% FBS or to 10 μg/mL purified laminin (Invitrogen) using the CytoSelect™ 24-well cell migration assay (8 μm, Colorimetric Format) (Cell Biolabs, Inc.). HT1080 cells were obtained from the American Type Culture Collection (Manassas, Va.). HT1080 cells were maintained in Dulbecco's modified Eagle's medium—[…] with 10% FBS. […] After agitation for 10 min at room temperature in extraction solution, 100 μl of each sample was transferred to an ELISA plate and read at 630 nm. […] Results were plotted using GraphPad Prism software, and statistical significance was calculated using a standard Student's t-test.

Assay [2] addresses LamR (Homo sapiens, UniProt P08865). Briefly: Small-molecule inhibition of recombinant LamR binding to laminin coated surface. As to conditions: for Effect on LamR binding to laminin (in words): purified recombinant LamR, FIG. 8a; for Reduction of LamR binding to laminin relative to the vehicle control (DMSO alone): purified recombinant LamR pre-incubated with small molecule, dose-dependent (FIG. 8a). How it is done:
Compounds that interact with this described pocket, MRT (LRI) and MRF (LRI-F), display the properties of LamR inhibitors and are preferred for use in the methods of the present application. […] Binding was not reduced by several negative control compounds (Negative and DBP).
(§1) Wild type and mutant LamR binding affinity for laminin were tested in vitro. Clear polystyrene ELISA 96-well microplates, pre-coated with murine laminin (NEBiolabs), were blocked for 1 hour at 37° C. with blocking buffer (2% FCS, 1 mg/ml BSA, 0.1% sodium azide in PBS). Wells were incubated with increasing concentrations of purified wild type or mutant LamR for 1 h at 37° C. If a small molecule's effects on laminin binding were to be determined, the small molecule was pre-incubated with purified LamR for 15 minutes at 37° C. prior to addition of the mixture to the pre-coated plate. Each well was washed three times with wash buffer (0.5% Tween in PBS). Penta-His HRP conjugate (1:500) (Qiagen) was incubated for 2 h at RT and wells were washed three times with wash buffer. Substrate solution was added and incubated for approximately 10 minutes before reading the fluorescent absorbance detected at 490 nm on an ELISA plate reader (ELX800, Biotek Instruments, Inc.). Controls for buffer alone and binding of a nonspecific protein, A. fulgidus S2p, were also tested. Experiments were performed in triplicate. A binding curve and Kd were generated for wild type and mutant LamR using Prism software. The Kd was calculated using a one-site binding hyperbola and the equation Y=Bmax×X/(Kd+X). Each group was tested in triplicate and binding affinity was determined by normalizing to background fluorescence.

In assay [3] the test system is 3T3, HT1080 and C8161 cell lines. Briefly: Cellular translation by 35S-methionine pulse-chase radiolabeling. As to conditions: 10 μM, FIG. 9a. The assay is classed as cell-based. How it is done: As expected for compounds with these properties, the LamR inhibitors of the invention attenuated the translation process.
To label newly synthesized proteins, cells were pulsed with 20 μCi/mL ^35S-methionine radiolabeled amino acid (PerkinElmer) in standard growth media lacking methionine (MP Biomedicals) for 2 hours at 37° C. Following the pulse, normal growth medium was added for the chase to restore normal conditions for 90 minutes. MPER mammalian protein extraction reagent (Pierce) was used to lyse cells and collect protein. To quantity the amount of newly synthesized protein containing the radioisotope, 20 μg total protein was precipitated with 10% TCA for 20 minutes at 4° C. Precipitant was vacuum filtered and washed on glass microfiber filters (Whatman) using 5% TCA followed by 95% ethanol. Filters were dried under a heat lamp prior to addition of 3 mL scintillation fluid to count radioisotope incorporation by events on a Beckman LS3801 scintillation counter (Beckman). For measuring the effects small molecules had on the translation, cells in culture were pre-treated for 18 hours with 1-10 μM of small molecule prior to pulse/chase. As a control for arresting translation, 50 μg/mL cycloheximide was added 3 hours prior to assessment.

Assay [4] has as its system HT1080 cells. Briefly: Growth inhibition of HT1080 cells. The assay is classed as cell-based, human. To be noted: FIG. 9b. The text has this: FIGS. 9a and 9b—Targeting LamR ribosomal and growth functions with inhibitors. (a) Inhibition of cellular translation in several cell lines by LamR inhibitor LRI-F (MRF/Face) by radiolabeled methionine pulse-chase. CHX, cycloheximide (b) Effects of treating HT1080 cells with LamR inhibitors. Dose dependent growth effects occur. *p-value <0.0001, n=3.
The analog compound LRI-F, an inhibitor of LamR, affected these functions.

The test system of assay [5] is HT1080 human fibrosarcoma cells. Briefly: Experimental metastasis of luciferase expressing HT1080 cells in SCID mice. In kind it is in vivo. The text has this:
In addition, LamR has been described to be a critical factor of tumor metastasis. Clinical uses of the LamR inhibitors disclosed herein include their use as anti-metastatic anti-tumor agents. In a manner similar to that observed for the above-described in vitro cellular migration assays, compound LRI-F has such anti-metastatic properties in a murine model of experimental metastasis. […] Tumor cells were imaged via their expression of an exogenous firefly luciferase gene using the IVIS in vivo imaging system (Caliper/Xenogen).
Cells were washed once in PBS and re-suspended to a concentration of 1×10^6 cells/mL in PBS. 0.5 cc of the cell suspension (500,000 cells) was injected intravenously via the tail vein into SCID mice. Tumor implantation was monitored with IVIS Spectrum imaging technology (Caliper LS/Xenogen) following intra-peritoneal injection of luciferin substrate. Briefly, a camera is used to detect bioluminescent signal emitted from luciferase expressing cells. Mice are injected i.p. with 0.3 cc of 15 mg/mL beetle luciferin substrate (Promega) in PBS. Mice are anesthetized with isofluoran (2%)/oxygen mixture prior to imaging 5 minutes post substrate injection. Light is collected over a 1 minute imaging period at high binning to detect lung signal. Living Image Software version 3.0 (Caliper LS) is used to quantify and represent light signal.

Assay [6] concerns laminin. Briefly: In vitro binding affinity of wild type and mutant LamR for laminin (ELISA on laminin pre-coated plates). Further details: species or system murine. To be noted: immobilized laminin. How it is done:
as §1, with “Penta-His HRP conjugate (1:500) (Qiagen) was incubated for 2 h at RT and wells were washed three times with wash buffer.” left out, “Controls for buffer alone and binding of a nonspecific protein, A. fulgidus S2p, were also tested. Experiments were performed in triplicate. A binding curve and Kd were generated for wild type and mutant LamR using Prism software.” left out
In total, 14 mutants were analyzed individually (Table 1, FIG. 1a). […] The purity of the proteins was monitored by SDS ? […] Purified recombinant LamR220 (greater than 95% purity) was incubated in serial dilution on pre-coated laminin plates, and binding was detected by anti-His HRP. […]
On the technique in general: An ELISA detects its analyte on a solid surface through an enzyme-linked reagent.

Regarding `C[C@@H]1C[C@@H]([C@H](O)CC2CC(=O)NC(=O)C2)C(=O)[C@@H](C)C1` [CHX, cycloheximide, reference compound], the “Migration of HT1080 cells to 10% serum after small molecule treatment” value in assay [1] (cells pre-treated 2 hours with 5-10 μM small molecule, CHX 50 μg/mL 3 hours, FIG. 8b) is “did not result in loss of migratory ability”.

For the molecule `c1ccc2nc3c4ccccc4c4ccccc4c3nc2c1` [DBP, dibenzophenazine, reference compound], the “Effect on LamR binding to laminin (in words)” value (“Effect on LamR binding” below) in assay [2] was “not reduced”.

Regarding `S=C(Nc1ccc2nc3c4ccccc4c4ccccc4c3nc2c1)N1CCOCC1` [MRF, N-dibenzo[a,c]phenazin-11-yl-4-morpholinecarbothioamide], in assay [2], the “Reduction of LamR binding to laminin relative to the vehicle control (DMSO alone)” value is recorded as “approximately 50%” and the “Effect on LamR binding” value is “block recombinant LamR binding to purified laminin coated surface”. Moreover, in assay [3], the “Translation of newly synthesized proteins relative to untreated control” value is listed as “dramatic reduction”. Besides, the “Growth effect in HT1080 cells” value in assay [4] is “growth inhibitory effects in HT1080 cells in a dose-dependent manner”. In addition, the “Tumor signal from the lungs” value in assay [5] (0.42 mg/20 g injected subcutaneously once 2 hours post-injection of cells, FIG. 10c-d) is “decreased tumor signal from the lungs”. In assay [5] (cells pretreated with 10 μM before tail vein injection, SCID mice, FIG. 10a), the “Ability of HT1080 cells to implant into the lungs after intravenous injection” value is “marked decrease”. Moreover, the “Survival of mice compared to cells pretreated with DMSO vehicle” value in assay [5] (cells pretreated with 10 μM, FIG. 10b) is “prolonged survival”.

In the case of `O=C(NCCO)c1ccc2nc3c4ccccc4c4ccccc4c3nc2c1` [MRT, N-(2-hydroxyethyl)dibenzo[a,c]phenazine-11-carboxamide], in assay [2], the “Reduction of LamR binding to laminin relative to the vehicle control (DMSO alone)” value is listed as “approximately 50%” and the “Effect on LamR binding” value is recorded as “block recombinant LamR binding to purified laminin coated surface”.

B1: A. fulgidus S2p: Archaeoglobus fulgidus S2 ribosomal protein, non-laminin binding ortholog of LamR (protein, UniProt O29132 1-197, looked up)
Small ribosomal subunit …: MMEKEYEYLVPPDDYLAAGVHIGTQIKTGDMKKFIFKVRQDGLYVLDIRKLDERIRVAAKFLSRYEPSKILLVAARQYAHKPVQMFSKVVGSDYIVGRFIPGTLTNPMLSEYREPEVVFVNDPAIDKQAVSEATAVGIPVVALCDSNNSSADVDLVIPTNNKGRRALAIVYWLLAREIAKIRGQDFTYSIEDFEAEL
With B1, the “Laminin binding activity (in words)” value in assay [6] was “does not exhibit laminin-binding activity; also recorded: no binding”. Besides, the “Inhibition of cell migration towards 10% FBS by recombinant protein” value in assay [1] (recombinant protein 1 μM in lower reservoir, FIG. 3b) was “not inhibited”.
